# According to US12583824B2 (Genzyme Corporation, priority 2019, dated 2026):
# Biological target: T1, CFTR in primary human bronchial epithelial cells from a ΔF508 homozygous CF donor (CF-HBE cells) (Homo sapiens, UniProt P13569, DEL508-508)
# T1 construct: Primary human bronchial epithelial cells from a ΔF508 homozygous CF donor; host or cells: primary human bronchial epithelial cells (CF-HBE), ΔF508 homozygous donor
# Assay: TECC24 recording analysis of CFTR-mediated transepithelial chloride transport (AUC fold over DMSO)
# Assay type: cell-based
# Details: 3 μM test agent, CF-HBE cells cultured 48 hours at 36.5° C.; ratio of test agent AUC of forskolin-stimulated IEQ divided by vehicle (DMSO) AUC
# Method: Example 31: TECC24 AUC Fold Over DMSO @ 3 μM
# The effects of a test agent on CFTR-mediated transepithelial chloride transport was measured using TECC24 recording analysis. Test agents were solubilized in DMSO. Solubilized test agents were mixed with incubation medium containing DMEM/F12, Ultroser G (2%; Crescent Chemical, catalog #67042), Hyclone Fetal Clone II (2%; GE Healthcare, catalog #SH30066.02), bovine brain extract (0.25%; Lonza, catalog #CC-4098), insulin (2.5 μg/mL), IL-13 (10 ng/mL), hydrocortisone (20 nM), transferrin (2.5 μg/mL), triiodothyronine (500 nM), ethanolamine (250 nM), epinephrine (1.5 μM), phosphoethanolamine (250 nM), and retinoic acid (10 nM). Primary human bronchial epithelial cells from a ΔF508 homozygous CF donor (CF-HBE cells; from University of North Carolina Cystic Fibrosis Tissue Procurement Center), grown on Transwell HTS 24-well cell culture inserts (Costar, catalog #3378), were exposed to test agents or controls dissolved in incubation medium. The CF-HBE cells were cultured at 36.5° C. for 48 hours before TECC24 recordings were performed in the presence or absence of test agent, a positive control or vehicle (DMSO).
# Following incubation, the transwell cell culture inserts containing the test agent or control-treated CF-HBE cells were loaded onto a TECC24 apparatus (TECC v7 or MTECC v2; EP Design) to record the transepithelial voltage (VT) and resistance (TEER) using 4 AgCl electrodes per well configured in current-clamp mode. The apical and basolateral bath solutions both contained (in mM) 140 NaCl, 5 KCl, 2 CaCl2), 1 MgCl2, 10 Hepes, and 10 glucose (adjusted to pH 7.4 with NaOH). To inhibit basal Na+ absorption, the ENaC inhibitor benzamil (10 μM) was added to the bath. Then, the adenylate cyclase activator, forskolin (10 μM), was added to the bath to activate CFTR. The forskolin-stimulated Cl-transport was halted by addition of bumetanide (20 μM), an inhibitor of the basolateral chloride co-transporter NKCC1, to the bath to confirm that the detected signal was chloride dependent. VT and TEER recordings were digitally acquired at routine intervals using TECC or MTECC software (EP Design). VT and TEER were transformed into equivalent transepithelial Cl-current (IEQ), and the Area Under the Curve (AUC) of the IEQ time course between forskolin and bumetanide addition is generated using Excel (Microsoft). Efficacy is expressed as the ratio of the test agent AUC divided by vehicle AUC. EC50s based on AUC are generated using the non-linear regression log(agonist) vs. response function in Prism software (GraphPad) with Hill Slope fixed=1.
# If a test agent increased the AUC of the forskolin-stimulated IEQ relative to vehicle in CF-HBE cells, and this increase was inhibited by bumetanide, then the test agent was considered a CFTR corrector.
# T1 sequence (P13569 with tags, fused parts or gaps DEL508-508): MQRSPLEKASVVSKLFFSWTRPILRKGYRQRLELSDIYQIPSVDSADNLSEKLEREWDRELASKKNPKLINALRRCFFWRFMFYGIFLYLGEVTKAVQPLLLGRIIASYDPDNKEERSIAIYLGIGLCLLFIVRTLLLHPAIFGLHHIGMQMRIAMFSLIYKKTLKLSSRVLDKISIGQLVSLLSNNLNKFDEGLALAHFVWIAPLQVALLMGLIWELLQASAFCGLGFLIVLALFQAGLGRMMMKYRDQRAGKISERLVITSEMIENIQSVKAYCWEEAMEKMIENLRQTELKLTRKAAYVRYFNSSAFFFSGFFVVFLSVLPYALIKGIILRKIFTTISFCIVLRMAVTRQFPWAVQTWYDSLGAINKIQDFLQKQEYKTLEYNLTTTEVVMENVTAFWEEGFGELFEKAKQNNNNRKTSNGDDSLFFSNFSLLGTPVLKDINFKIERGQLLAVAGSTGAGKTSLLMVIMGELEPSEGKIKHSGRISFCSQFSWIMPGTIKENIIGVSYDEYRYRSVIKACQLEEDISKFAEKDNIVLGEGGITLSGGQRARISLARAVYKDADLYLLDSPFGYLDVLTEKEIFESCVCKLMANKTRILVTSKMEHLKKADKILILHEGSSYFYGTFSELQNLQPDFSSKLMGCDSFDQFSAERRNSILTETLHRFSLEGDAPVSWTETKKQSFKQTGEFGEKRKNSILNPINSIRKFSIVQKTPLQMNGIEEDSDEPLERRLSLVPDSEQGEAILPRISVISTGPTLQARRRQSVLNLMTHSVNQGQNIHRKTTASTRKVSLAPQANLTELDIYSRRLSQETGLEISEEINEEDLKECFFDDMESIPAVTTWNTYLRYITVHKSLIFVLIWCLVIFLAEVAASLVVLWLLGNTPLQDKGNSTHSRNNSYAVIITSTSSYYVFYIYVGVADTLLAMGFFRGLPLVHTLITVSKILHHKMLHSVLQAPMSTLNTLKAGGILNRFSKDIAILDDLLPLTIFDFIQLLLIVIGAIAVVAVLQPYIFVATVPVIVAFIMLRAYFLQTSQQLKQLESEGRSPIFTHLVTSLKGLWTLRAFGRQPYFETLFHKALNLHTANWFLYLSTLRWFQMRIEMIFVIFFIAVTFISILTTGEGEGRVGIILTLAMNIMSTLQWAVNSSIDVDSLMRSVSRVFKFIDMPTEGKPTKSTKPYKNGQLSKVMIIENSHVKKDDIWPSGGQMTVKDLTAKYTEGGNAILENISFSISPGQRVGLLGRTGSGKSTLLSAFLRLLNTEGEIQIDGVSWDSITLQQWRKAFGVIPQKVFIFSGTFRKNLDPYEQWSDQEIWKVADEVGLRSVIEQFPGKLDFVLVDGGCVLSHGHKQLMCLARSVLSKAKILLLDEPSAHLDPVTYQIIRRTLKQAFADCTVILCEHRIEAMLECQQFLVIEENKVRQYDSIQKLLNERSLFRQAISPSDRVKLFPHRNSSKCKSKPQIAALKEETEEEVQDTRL
row,TECC24 AUC vs. DMSO (@3 μM),SMILES
1,B (“B” refers to AUC between 2-5),"Cc1cccc(C)c1-c1nc(NS(=O)(=O)c2ccccc2)cnc1-c1cccc([C@@H]2CC[C@H](OC(F)(F)F)C2)c1 (single isomer, unassigned) [Example 6a]"
2,A (“A “refers to AUC > 5),"Cc1cccc(C)c1-c1nc(NS(=O)(=O)c2ccccc2)cnc1-c1cccc([C@@H]2CC[C@@H](OC(F)(F)F)C2)c1 (single isomer, unassigned) [Example 6b]"
3,C (“C” refers to AUC < 2),"Cc1cccc(C)c1-c1nc(NS(=O)(=O)c2cn(C)nc2C)cnc1-c1cccc([C@@H]2CC[C@H](OC(F)(F)F)C2)c1 (single isomer, unassigned) [Example 7a]"
4,B (“B” refers to AUC between 2-5),"Cc1cccc(C)c1-c1nc(NS(=O)(=O)c2cn(C)nc2C)cnc1-c1cccc([C@@H]2CC[C@@H](OC(F)(F)F)C2)c1 (single isomer, unassigned) [Example 7b]"
5,C (“C” refers to AUC < 2),"Cc1nn(C)cc1S(=O)(=O)Nc1cnc(-c2cccc([C@@H]3CC[C@H](OC(F)(F)F)C3)c2)c(-c2ccccc2C(C)C)n1 (single isomer, unassigned) [Example 8a]"
6,B (“B” refers to AUC between 2-5),"Cc1nn(C)cc1S(=O)(=O)Nc1cnc(-c2cccc([C@@H]3CC[C@@H](OC(F)(F)F)C3)c2)c(-c2ccccc2C(C)C)n1 (single isomer, unassigned) [Example 8b]"
7,C (“C” refers to AUC < 2),"CC(C)c1ccccc1-c1nc(NS(=O)(=O)c2ccccc2)cnc1-c1cccc([C@@H]2CC[C@H](OC(F)(F)F)C2)c1 (single isomer, unassigned) [Example 9a]"
8,C (“C” refers to AUC < 2),"CC(C)c1ccccc1-c1nc(NS(=O)(=O)c2ccccc2)cnc1-c1cccc([C@@H]2CC[C@@H](OC(F)(F)F)C2)c1 (single isomer, unassigned) [Example 9b]"
9,C (“C” refers to AUC < 2),"CC(C)n1nccc1-c1nc(NS(=O)(=O)c2ccccc2)cnc1-c1cccc([C@@H]2CCC(OC(F)(F)F)C2)c1 (single isomer, unassigned) [Example 10a]"
10,C (“C” refers to AUC < 2),"CC(C)n1nccc1-c1nc(NS(=O)(=O)c2ccccc2)cnc1-c1cccc([C@@H]2CC[C@@H](OC(F)(F)F)C2)c1 (single isomer, unassigned) [Example 10b]"
11,B (“B” refers to AUC between 2-5),"O=S(=O)(Nc1ncc(-c2cccc([C@H]3CC[C@H](OC(F)(F)F)C3)c2)c(-c2ccccc2C(F)(F)F)n1)c1ccccc1 (single isomer, unassigned) [Example 27a]"
12,A (“A “refers to AUC > 5),"O=S(=O)(Nc1ncc(-c2cccc([C@H]3CC[C@@H](OC(F)(F)F)C3)c2)c(-c2ccccc2C(F)(F)F)n1)c1ccccc1 (single isomer, unassigned) [Example 27b]"
13,A (“A “refers to AUC > 5),"O=S(=O)(Nc1ncc(-c2cccc([C@@H]3CC[C@H](OC(F)(F)F)C3)c2)c(-c2ccccc2C(F)(F)F)n1)c1ccccc1 (single isomer, unassigned) [Example 28a]"
14,A (“A “refers to AUC > 5),"O=S(=O)(Nc1ncc(-c2cccc([C@@H]3CC[C@@H](OC(F)(F)F)C3)c2)c(-c2ccccc2C(F)(F)F)n1)c1ccccc1 (single isomer, unassigned) [Example 28b]"
15,B (“B” refers to AUC between 2-5),"Nc1cccc(S(=O)(=O)Nc2ncc(-c3cccc([C@H]4CC[C@@H](OC(F)(F)F)C4)c3)c(-c3ccccc3C(F)(F)F)n2)c1 (single isomer, unassigned) [Example 29a]"
16,B (“B” refers to AUC between 2-5),"Nc1cccc(S(=O)(=O)Nc2ncc(-c3cccc([C@H]4CC[C@H](OC(F)(F)F)C4)c3)c(-c3ccccc3C(F)(F)F)n2)c1 (single isomer, unassigned) [Example 29b]"
17,B (“B” refers to AUC between 2-5),"Nc1cccc(S(=O)(=O)Nc2ncc(-c3cccc([C@@H]4CC[C@H](OC(F)(F)F)C4)c3)c(-c3ccccc3C(F)(F)F)n2)c1 (single isomer, unassigned) [Example 30a]"
18,A (“A “refers to AUC > 5),"Nc1cccc(S(=O)(=O)Nc2ncc(-c3cccc([C@@H]4CC[C@@H](OC(F)(F)F)C4)c3)c(-c3ccccc3C(F)(F)F)n2)c1 (single isomer, unassigned) [Example 30b]"
19,A (“A “refers to AUC > 5),"Cc1cccc(C)c1-c1nc(NS(=O)(=O)c2ccccc2)cnc1-c1ccc(F)c(OCC(C)(C)C(F)(F)F)c1 [Example 4, N-(6-(2,6-dimethylphenyl)-5-(4-fluoro-3-(3,3,3-trifluoro-2,2-dimethylpropoxy)phenyl)pyrazin-2-yl)benzenesulfonamide]"
20,C (“C” refers to AUC < 2),"Cc1nn(C)cc1S(=O)(=O)Nc1cnc(-c2cccc([C@@H]3CC[C@@H](OC(F)(F)F)C3)c2)c(-c2ccnn2C(C)C)n1 [Example 11, N-(6-(1-isopropyl-1H-pyrazol-5-yl)-5-(3-((1R,3R)-3-(trifluoromethoxy)cyclopentyl)phenyl)pyrazin-2-yl)-1,3-dimethyl-1H-pyrazole-4-sulfonamide]"
21,B (“B” refers to AUC between 2-5),"CC(C)(C)COc1cc(-c2ccc(NS(=O)(=O)c3cccc(Cl)n3)nc2-c2ccc(C(F)(F)F)cc2)ccc1Cl [Example 12, 6-chloro-N-(5-(4-chloro-3-(neopentyloxy)phenyl)-6-(4-(trifluoromethyl)phenyl)pyridin-2-yl)pyridine-2-sulfonamide]"
22,C (“C” refers to AUC < 2),"CC(C)(C)COc1cc(-c2ccc(NS(=O)(=O)c3cccc(N)n3)nc2-c2ccc(C(F)(F)F)cc2)ccc1Cl [Example 13, 6-amino-N-(5-(4-chloro-3-(neopentyloxy)phenyl)-6-(4-(trifluoromethyl)phenyl)pyridin-2-yl)pyridine-2-sulfonamide]"
23,C (“C” refers to AUC < 2),"CC(C)(C)COc1cc(-c2ccc(NS(=O)(=O)c3ccccc3)nc2-c2ccc(C(F)(F)F)cc2)ccc1Cl [Example 14, N-(5-(4-chloro-3-(neopentyloxy)phenyl)-6-(4-(trifluoromethyl)phenyl)pyridin-2-yl)benzenesulfonamide]"

row,SMILES,TECC24 AUC vs. DMSO (@3 μM)
1,"CC(C)c1ccccc1-c1nc(NS(=O)(=O)c2ccccc2)cnc1-c1cccc(OCC(F)(F)C(C)(C)C)c1 [Example 1, N-(5-(3-(2,2-difluoro-3,3-dimethylbutoxy)phenyl)-6-(2-isopropylphenyl)pyrazin-2-yl)benzenesulfonamide]",A (“A “refers to AUC > 5)
2,"Cc1cccc(C)c1-c1nc(NS(=O)(=O)c2ccccc2)cnc1-c1cccc(OCC(F)(F)C(C)(C)C)c1 [Example 2, N-(5-(3-(2,2-difluoro-3,3-dimethylbutoxy)phenyl)-6-(2,6-dimethylphenyl)pyrazin-2-yl)benzenesulfonamide]",A (“A “refers to AUC > 5)
3,"Cc1cccc(C)c1-c1nc(NS(=O)(=O)c2ccccc2)cnc1-c1cccc(OCCC(C)(C)C)c1 [Example 3, N-(5-(3-(3,3-dimethylbutoxy)phenyl)-6-(2,6-dimethylphenyl)pyrazin-2-yl)benzenesulfonamide]",A (“A “refers to AUC > 5)
4,"CC(C)c1ccccc1-c1nc(NS(=O)(=O)c2ccccc2)cnc1-n1ccc(OCC(F)(F)C(C)(C)C)n1 [Example 5, N-(5-(3-(2,2-difluoro-3,3-dimethylbutoxy)-1H-pyrazol-1-yl)-6-(2-isopropylphenyl)pyrazin-2-yl)benzenesulfonamide]",A (“A “refers to AUC > 5)
5,"Cc1cccc(C)c1-c1nc(NS(=O)(=O)c2ccccc2)ccc1-c1cccc(OCCC(C)(C)C)c1 [Example 15, N-(5-(3-(3,3-dimethylbutoxy)phenyl)-6-(2,6-dimethylphenyl)pyridin-2-yl)benzenesulfonamide]",A (“A “refers to AUC > 5)
